{"source": "paper PMC10108740", "about": "(Journal of Medicinal Chemistry, 2023)", "key": {"[1]": {"test_system": "SARS-CoV-2 BA.1 (Omicron)", "experiment": "microbe, parasite or virus in culture", "type": "cell-based", "details": "Severe acute respiratory syndrome coronavirus 2, Calu-3"}, "[2]": {"test_system": "SARS-CoV-2 B.1.351 (Beta)", "experiment": "microbe, parasite or virus in culture", "type": "cell-based", "details": "Severe acute respiratory syndrome coronavirus 2, Calu-3"}, "Calu-3 cells": {"test_system": "Calu-3 cells", "details": "human, 44 h"}, "in vitro [3]": {"experiment": "in vitro", "details": "chlorocebus aethiops", "method": "Cells were seeded as per SARS-CoV-2 infection studies in opaque walled 96-well cell culture plates and incubated overnight for Huh7.5 and Vero-TMPRSS2 cells and for an additional 24h for Calu-3 cells. Compounds or controls were added at the indicated concentrations. Cells were incubated for 48h for Huh7.5 cells, 40–44h for Calu-3 cells, or 30–32h for Vero-TMPRSS2 cells at 37 °C and 5% CO2, an equal volume of CellTiter-Glo reagent (Cat. #G7570, Promega) or CellTiter-Glo 2.0 reagent (Cat. #G9241, Promega) was added and mixed, and luminescence was recorded on a Veritas Microplate Luminometer (Turner BioSystems) according to manufacturer recommendations. Percent viability was calculated compared to DMSO controls, and CC50 values were calculated using Prism 9.\nCalu-3 cells were treated for 44h (A), Huh7.5 cells were treated for 48h (B), and Vero-\nTMPRSS2 cells were treated for 38h (C) as in infection assays for each cell type. Cell viability\nwas measured by CellTiter-Glo assay and reported as % cell viability relative to DMSO controls.\nBest fit curves calculated in Graphpad Prism 9 were used\nto compute cytotoxic concentration 50% (CC50) values in Tables 1-3."}, "[4]": {"test_system": "SARS-CoV-2 WA1 (USA-WA1/2020)", "experiment": "Antiviral immunofluorescence assay, SARS-CoV-2 WA1 in Calu-3 cells", "type": "cell-based", "details": "immunofluorescence, 44 hpi, mean ± SD"}, "in vitro [5]": {"experiment": "in vitro", "details": "human"}, "[6]": {"test_system": "SARS-CoV-2 B.1.1.7 (Alpha)", "experiment": "microbe, parasite or virus in culture", "type": "cell-based", "details": "Severe acute respiratory syndrome coronavirus 2, Calu-3"}, "SARS-CoV-2 (WA-1) [7]": {"test_system": "SARS-CoV-2 (WA-1)", "experiment": "Antiviral immunofluorescence assay, SARS-CoV-2 WA1 in human pluripotent stem cell-derived lung cells", "type": "cell-based", "details": "Severe acute respiratory syndrome coronavirus 2, WA-1, PSC-lung cells (ALDA 31616 and H9), 24 hpi"}, "in vitro [8]": {"experiment": "in vitro", "details": "human", "remark": "listed apart in the source"}, "SARS-CoV-2 P.1 (Gamma)": {"test_system": "SARS-CoV-2 P.1 (Gamma)", "experiment": "microbe, parasite or virus in culture", "type": "cell-based", "details": "Severe acute respiratory syndrome coronavirus 2, Calu-3"}, "SARS-CoV-2 (WA-1) [9]": {"test_system": "SARS-CoV-2 (WA-1)", "parameters": "method as in PMID 34310217", "details": "Huh7.5 cells; read-out: EC50, inhibition of SARS-CoV-2 replication; cited from earlier work"}, "SARS-CoV-2 (WA-1) [10]": {"test_system": "SARS-CoV-2 (WA-1)", "experiment": "Antiviral immunofluorescence assay, SARS-CoV-2 WA1 in Huh7.5 cells", "type": "cell-based", "details": "Severe acute respiratory syndrome coronavirus 2, WA-1, Huh7.5 cells, immunofluorescence, 48 hpi"}, "[11]": {"test_system": "SARS-CoV-2 B.1.617.2 (Delta)", "experiment": "microbe, parasite or virus in culture", "type": "cell-based", "details": "Severe acute respiratory syndrome coronavirus 2, Calu-3"}, "SARS-CoV-2 (WA-1) [12]": {"test_system": "SARS-CoV-2 (WA-1)", "experiment": "Antiviral immunofluorescence assay, SARS-CoV-2 WA1 in Vero-TMPRSS2 cells", "type": "cell-based"}, "[13]": {"details": "hamster, in vivo; cited from earlier work"}}, "note": "Read-outs that look alike come from different tables or passages of the source.", "data": [{"smiles": "CCCCCCCCCCCCCCCCCCOC[C@H](COP(=O)(O)OC[C@H]1O[C@@](C#N)(c2ccc3c(N)ncnn23)[C@H](O)[C@@H]1O)OCc1ccccc1", "note": "[Compound V2043, 1-O-octadecyl-2-O-benzyl-sn-glyceryl-phospho-RVn]", "values": [{"measurement": "EC50", "setting": "[1]", "result": "44 ± 12", "unit": "nM"}, {"measurement": "EC90", "setting": "[1]", "result": "359 ± 447", "unit": "nM"}, {"measurement": "EC50", "setting": "[2]", "result": "146 ± 104", "unit": "nM"}, {"measurement": "EC90", "setting": "[2]", "result": "645 ± 459", "unit": "nM"}, {"measurement": "CC50", "setting": "Calu-3 cells", "result": 58.3, "unit": "µM"}, {"measurement": "CC50 at 38 h", "setting": "in vitro [3]", "result": 97.9, "unit": "µM"}, {"measurement": "EC50", "setting": "[4]; Severe acute respiratory syndrome coronavirus 2, Calu-3, WA1, Calu-3 cells", "result": 138, "unit": "nM"}, {"measurement": "EC90", "setting": "[4]; Severe acute respiratory syndrome coronavirus 2, WA1, Calu-3 cells", "result": "323 ± 157", "unit": "nM"}, {"measurement": "EC50", "setting": "[4]; WA1, Calu-3 cells, read-out: EC50", "result": "136 ± 56", "unit": "nM"}, {"measurement": "CC50 at 24 h", "setting": "in vitro [5]", "result": "> 20", "unit": "µM"}, {"measurement": "EC50", "setting": "[6]", "result": "146 ± 95", "unit": "nM"}, {"measurement": "EC90", "setting": "[6]", "result": "517 ± 169", "unit": "nM"}, {"measurement": "EC50", "setting": "SARS-CoV-2 (WA-1) [7]", "result": "382 ± 205", "unit": "nM"}, {"measurement": "EC90", "setting": "SARS-CoV-2 (WA-1) [7]", "result": "736 ± 267", "unit": "nM"}, {"measurement": "CC50 at 44 h", "setting": "in vitro [8]", "result": 58.3, "unit": "µM"}, {"measurement": "EC50", "setting": "SARS-CoV-2 P.1 (Gamma)", "result": "167 ± 84", "unit": "nM"}, {"measurement": "EC90", "setting": "SARS-CoV-2 P.1 (Gamma)", "result": "362 ± 42", "unit": "nM"}, {"measurement": "EC50", "setting": "SARS-CoV-2 (WA-1) [9]", "result": 138, "unit": "nM"}, {"measurement": "EC50", "setting": "SARS-CoV-2 (WA-1) [10]; read-out: EC50", "result": "140 ± 63", "unit": "nM"}, {"measurement": "EC90", "setting": "SARS-CoV-2 (WA-1) [10]; read-out: EC90", "result": "424 ± 267", "unit": "nM"}, {"measurement": "EC50", "setting": "[11]", "result": "85 ± 24", "unit": "nM"}, {"measurement": "EC90", "setting": "[11]", "result": "484 ± 457", "unit": "nM"}, {"measurement": "EC50", "setting": "SARS-CoV-2 (WA-1) [12]; Severe acute respiratory syndrome coronavirus 2, Vero/TMPRSS2", "result": "216 ± 38", "unit": "nM"}, {"measurement": "EC90", "setting": "SARS-CoV-2 (WA-1) [12]; Severe acute respiratory syndrome coronavirus 2, WA-1, Vero-TMPRSS2 cells, immunofluorescence, 38 hpi", "result": "403 ± 128", "unit": "nM"}, {"measurement": "oral bioavailability", "setting": "[13]", "result": "orally bioavailable"}]}]}
